# Test results: PMC4125376 (Drug Target Insights, 2014)
# Biological target: Babesia microti lactate dehydrogenase (BmLDH) (Babesia microti, UniProt I7J7V6)
# Assay: NADH formation at […] nm, […] NAD+ and […] lactate, non-linear regression
# Type: biochemical
# Babesia microti lactate dehydrogenase (BmLDH), sequence (I7J7V6 1-332): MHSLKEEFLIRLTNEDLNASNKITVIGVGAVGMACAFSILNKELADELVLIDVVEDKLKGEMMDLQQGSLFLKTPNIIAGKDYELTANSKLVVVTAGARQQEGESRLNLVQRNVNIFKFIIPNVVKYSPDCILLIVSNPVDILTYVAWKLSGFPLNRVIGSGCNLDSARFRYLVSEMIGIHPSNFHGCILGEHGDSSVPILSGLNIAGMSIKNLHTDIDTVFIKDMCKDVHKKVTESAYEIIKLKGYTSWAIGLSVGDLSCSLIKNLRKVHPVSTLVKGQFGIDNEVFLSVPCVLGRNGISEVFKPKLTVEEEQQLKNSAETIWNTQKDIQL
compound,measurement,value
Cc1cc2c(C(C)C)c(O)c(O)c(C=O)c2c(O)c1-c1c(C)cc2c(C(C)C)c(O)c(O)c(C=O)c2c1O [gossypol],IC50,345 ± 1.11 nM
